Columns and labels:
[1] = target: T1, 5-HT1a (Homo sapiens, UniProt P08908); assay: Radioligand binding, 5-HT1a ([3H]8-OH-DPAT); settings: Table 4; [3H]8-OH-DPAT 0.5 nM; read-out: Binding affinity, IC50 (nM) 5-HT1a
T1 construct: purchased Euroscreen/BioSignal Packard Inc
T1 sequence (P08908 1-422): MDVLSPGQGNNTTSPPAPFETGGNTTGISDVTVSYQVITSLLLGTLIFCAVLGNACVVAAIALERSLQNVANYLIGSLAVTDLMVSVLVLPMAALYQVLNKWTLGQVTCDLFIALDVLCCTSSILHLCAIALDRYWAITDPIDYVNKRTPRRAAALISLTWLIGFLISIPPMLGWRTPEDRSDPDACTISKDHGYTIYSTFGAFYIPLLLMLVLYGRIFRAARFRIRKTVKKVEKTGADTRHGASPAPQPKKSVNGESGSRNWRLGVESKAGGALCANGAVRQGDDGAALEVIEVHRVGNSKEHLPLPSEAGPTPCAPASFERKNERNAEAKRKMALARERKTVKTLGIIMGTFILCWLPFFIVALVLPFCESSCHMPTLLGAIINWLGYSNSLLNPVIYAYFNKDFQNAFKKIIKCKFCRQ
How it was run: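 Displacement of the radiolabel is read on purchased receptor membranes. Conditions follow the vendor's standard method.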

[2] = target: T2, 5-HT2c (Homo sapiens, UniProt P28335); assay: Radioligand binding, 5-HT2c ([3H]Mesulergine); settings: Table 4; [3H]Mesulergine 1 nM; read-out: Binding affinity, IC50 (nM) 5-HT2c
T2 construct: purchased Euroscreen/BioSignal Packard Inc
T2 sequence (P28335 33-458): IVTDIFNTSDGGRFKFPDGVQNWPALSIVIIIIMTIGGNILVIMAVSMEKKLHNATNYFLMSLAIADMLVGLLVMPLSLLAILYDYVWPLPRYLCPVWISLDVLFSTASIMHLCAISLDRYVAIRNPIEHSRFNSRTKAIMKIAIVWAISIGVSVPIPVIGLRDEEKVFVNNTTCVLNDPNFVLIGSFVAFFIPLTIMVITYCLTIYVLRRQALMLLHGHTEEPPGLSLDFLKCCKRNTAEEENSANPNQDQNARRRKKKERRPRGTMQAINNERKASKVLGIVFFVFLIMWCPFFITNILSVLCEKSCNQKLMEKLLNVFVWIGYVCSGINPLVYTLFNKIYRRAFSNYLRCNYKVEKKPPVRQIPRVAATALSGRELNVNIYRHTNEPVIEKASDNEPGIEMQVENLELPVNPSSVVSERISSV

[3] = target: T3, hD2L (Homo sapiens, UniProt P14416); assay: Radioligand binding, dopamine D2 ([3H]spiperone); settings: Table 4; [3H]spiperone 1 nM; read-out: Binding affinity, IC50 (nM) D2
T3 construct: purchased BioSignal Packard Inc., Montreal, Canada
T3 sequence (P14416 whole entry): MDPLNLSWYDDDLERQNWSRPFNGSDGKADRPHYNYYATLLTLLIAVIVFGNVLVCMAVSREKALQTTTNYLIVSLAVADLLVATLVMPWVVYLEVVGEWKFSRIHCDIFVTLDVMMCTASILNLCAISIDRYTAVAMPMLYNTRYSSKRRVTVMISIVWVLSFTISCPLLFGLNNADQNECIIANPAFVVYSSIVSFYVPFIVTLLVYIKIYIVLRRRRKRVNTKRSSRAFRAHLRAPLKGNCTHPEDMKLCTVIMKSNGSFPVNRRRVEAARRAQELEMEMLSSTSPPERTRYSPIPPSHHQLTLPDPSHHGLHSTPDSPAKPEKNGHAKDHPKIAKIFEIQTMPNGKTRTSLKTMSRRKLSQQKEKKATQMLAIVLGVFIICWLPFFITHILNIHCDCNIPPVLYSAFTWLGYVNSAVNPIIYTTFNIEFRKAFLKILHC
How it was run: (§1)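 Membrane competition binding with [3H]spiperone (1 nM) for hD2L and hD3, or [3H]YM-09151-2 (0.06 nM) for hD4.2, each in receptor-specific Tris-HCl pH 7.4 buffer containing Mg2+/EDTA (D3 and D4 also with K+, Ca2+; D3 with 120 mM NaCl). Compounds were tested at 7-8 concentrations in duplicate, and IC50 was derived by nonlinear regression across three assays.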

[4] = target: T4, hD3 (Homo sapiens, UniProt P35462); assay: Radioligand binding, dopamine D3 ([3H]spiperone); settings: Table 4; [3H]spiperone 1 nM; read-out: Binding affinity, IC50 (nM) D3
T4 construct: purchased BioSignal Packard Inc., Montreal, Canada
T4 sequence (P35462 whole entry): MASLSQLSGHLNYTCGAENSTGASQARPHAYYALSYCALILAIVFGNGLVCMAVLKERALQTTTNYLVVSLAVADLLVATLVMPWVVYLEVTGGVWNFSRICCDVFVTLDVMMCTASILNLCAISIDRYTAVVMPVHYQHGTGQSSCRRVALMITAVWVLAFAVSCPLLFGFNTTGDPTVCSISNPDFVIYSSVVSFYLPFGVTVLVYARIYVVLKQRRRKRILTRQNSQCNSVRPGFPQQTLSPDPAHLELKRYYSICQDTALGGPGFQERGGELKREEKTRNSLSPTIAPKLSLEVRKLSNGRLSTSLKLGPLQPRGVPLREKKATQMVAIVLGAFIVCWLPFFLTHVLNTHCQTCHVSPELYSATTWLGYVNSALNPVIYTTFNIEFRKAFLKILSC
How it was run: as §1

[5] = target: 5-HT6 receptors (Homo sapiens, UniProt P50406); assay: Adenylyl cyclase activity (cAMP accumulation) in HeLa cells transfected with human 5-HT6 receptor; type: cell-based; settings: for increase in cAMP level inhibited (FIG. 1): 5-HT-induced cAMP increase
Sequence of 5-HT6 receptors (P50406 whole entry): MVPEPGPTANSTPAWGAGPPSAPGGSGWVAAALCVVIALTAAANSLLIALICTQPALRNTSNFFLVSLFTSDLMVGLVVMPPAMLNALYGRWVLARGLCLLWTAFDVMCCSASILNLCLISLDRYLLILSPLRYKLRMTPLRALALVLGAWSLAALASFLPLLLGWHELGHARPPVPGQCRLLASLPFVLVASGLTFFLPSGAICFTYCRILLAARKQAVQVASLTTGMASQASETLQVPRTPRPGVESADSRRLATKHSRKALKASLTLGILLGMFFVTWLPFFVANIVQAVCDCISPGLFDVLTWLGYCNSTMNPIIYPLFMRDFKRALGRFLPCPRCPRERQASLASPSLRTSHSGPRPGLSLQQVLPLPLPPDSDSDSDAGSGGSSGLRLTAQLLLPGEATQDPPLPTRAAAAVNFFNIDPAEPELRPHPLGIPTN

[6] = test system: HeLa cells transfected with the human 5-HT6 receptor; assay: Cytotoxicity in HeLa cells transfected with the human 5-HT6 receptor; type: cell-based; settings: at the concentrations tested
[7] = HeLa, read-out: inhibition of 0.3 μM serotonin (5-HT)-induced increase in cAMP levels

**Q.** How did the IC50 [1] turn out when `CC1(c2ccc(O)cc2)C(=O)c2c(N3CCNCC3)cc(Cl)cc2N(Cc2ccccc2)C1=O` (racemic) [Example 14, 1-Benzyl-7-chloro-3-(4-hydroxy-phenyl)-3-methyl-5-piperazin-1-yl-1H-quinoline-2,4-dione] was run?
**A.** > 10000 nM

**Q.** And the IC50 [2]?
**A.** > 10000 nM

**Q.** And the IC50 [3]?
**A.** > 10000 nM

**Q.** And the IC50 [4]?
**A.** 1500 nM

**Q.** What about the IC50 [5] of the same molecule?
**A.** 28.7 nM

**Q.** And the “increase in cAMP level inhibited (FIG. 1)” value [5]?
**A.** inhibited

**Q.** What about the inhibition at 0.001 µM [5, 7] of the same molecule?
**A.** 10%

**Q.** And the inhibition at 0.01 µM [5, 7]?
**A.** 22%

**Q.** What about the inhibition at 0.1 µM [5, 7] of the same molecule?
**A.** 81%

**Q.** And the inhibition at 1 µM [5, 7]?
**A.** 100%

**Q.** What about the inhibition at 10 µM [5, 7] of the same molecule?
**A.** 100%

**Q.** What about the cytotoxicity [6] of the same molecule?
**A.** did not show any cytotoxicity

**Q.** For `COc1ccc(C2(C)C(=O)c3c(N4CCNCC4)cc(Cl)cc3N(Cc3ccccc3)C2=O)cc1` (racemic) [Example 13, 1-Benzyl-7-chloro-3-(4-methoxy-phenyl)-3-methyl-5-piperazin-1-yl-1H-quinoline-2,4-dione], which IC50 [1] is on record?
**A.** 1360 nM

**Q.** And the IC50 [2]?
**A.** 437 nM

**Q.** And the IC50 [3]?
**A.** > 10000 nM

**Q.** And the IC50 [4]?
**A.** 345 nM

**Q.** What about the “increase in cAMP level inhibited (FIG. 1)” value [5] of the same molecule?
**A.** inhibited
